According to patent US20160000782A1, “PHARMACEUTICAL COMPOSITION CONTAINING ANTIBACTERIAL AGENT” (priority 2013, published 2016):

Tested on: Archaea (extreme halophile) infection causing dementia
Assay: Treatment of patients with progressive dementia of unknown etiology (clinical course, MRI)
Assay type: in vivo, human
Experimental: The present inventors conducted studies by targeting 4 subjects with progressive dementia of unknown etiology at the Kagoshima University Medical and Dental Hospital. This study took place after the informed consent of the patients involved had been obtained. Also, this study was carried out with the approval of the ethical review committee of Kagoshima University.
Dementia was evaluated using the Revised Hasegawa Dementia Scale (HDS-R), which is […] that used for the mini-mental status examination (MMSE).

CO/N=C(\C(=O)N[C@@H]1C(=O)N2C(C(=O)O)=C(CSc3nc(=O)c(=O)[nH]n3C)CS[C@H]12)c1csc(N)n1 [ceftriaxone]
symptoms (Patient 1, ceftriaxone and methylprednisolone administered together, 2 weeks after the initial administration): improved slightly | symptoms thereafter (Patient 1, ceftriaxone and methylprednisolone administered together, later course, enlarged lesion in base of temporal lobe on brain MRI): tended to progress | improvement (Patient 3, ceftriaxone 4 g/day intravenous for 2 weeks): no improvement was observed
